Measured values from the NIST ThermoML archive (doi:10.1021/acs.jced.5b00298).
Numbers after ± are expanded uncertainties.

Test: mn = molality of the nth substance listed, in mol/kg
Details: 298.15 K, 101 kPa, Liquid, Vibrating tube method

| Compound | mass density (m1 = 0.02) [kg/m3] | mass density (m1 = 0.1001) [kg/m3] | mass density (m1 = 0.4001) [kg/m3] | mass density (m1 = 0.8) [kg/m3] | mass density (m1 = 1.201) [kg/m3] | mass density (m1 = 1.602) [kg/m3] | mass density (m1 = 0.0201) [kg/m3] | mass density (m1 = 0.1) [kg/m3] | mass density (m1 = 0.8002) [kg/m3] | mass density (m1 = 1.2) [kg/m3] | mass density (m1 = 1.6) [kg/m3] | mass density (m1 = 0.4002) [kg/m3] | mass density (m1 = 0.8001) [kg/m3] | mass density (m1 = 1) [kg/m3] |
| --- | --- | --- | --- | --- | --- | --- | --- | --- | --- | --- | --- | --- | --- | --- |
| O=[N+]([O-])[O-].[Na+] [sodium nitrate] + O | 998.191 ± 0.075 | 1002.65 ± 0.075 | 1019.02 ± 0.082 | 1040.02 ± 0.09 | 1060.25 ± 0.098 | 1079.67 ± 0.11 | – | – | – | – | – | – | – | – |
| [Na+].[O-][Cl+3]([O-])([O-])[O-] [sodium perchlorate] + O | – | – | 1027.27 ± 0.087 | – | – | – | 998.644 ± 0.078 | 1004.82 ± 0.079 | 1055.68 ± 0.098 | 1083.49 ± 0.11 | 1111.93 ± 0.12 | – | – | – |
| O=S(=O)([O-])[O-].[Na+].[Na+] [sodium sulfate] + O | – | 1009.69 ± 0.089 | – | – | – | – | 999.638 ± 0.087 | – | – | 1133.41 ± 0.14 | – | 1045.75 ± 0.1 | 1090.93 ± 0.12 | 1112.49 ± 0.13 |
